This assay relates to Spodoptera frugiperda. The assay is described as follows: Antifeedant activity against Spodoptera frugiperda final instar larvae at 100 ppm after 18 hrs by glass fiber disk method. Also noted: unit not given here. In kind it is functional.

The structures appear in SMILES notation.

Results on four molecules are retold here after ChEMBL document CHEMBL1158217, “Tetranortriterpenoids from Ruagea glabra” (1996).

With `C=C1[C@@H]2CC[C@@]3(C)[C@H](c4ccoc4)OC(=O)C[C@]13O[C@H]1CC(=O)C(C)(C)[C@H](CC(=O)OC)[C@]12C` [METHYLANGOLENSATE], the Activity was determined as 66.4.
For `COC(=O)C[C@H]1C(C)(C)[C@H](OC(=O)C(C)C)[C@H]2C(=O)[C@]1(C)[C@H]1CC[C@]3(C)[C@@H](CC(=O)O[C@H]3c3ccoc3)[C@]13O[C@H]23` [RUAGEANIN A] the value was 72.6.
Next, `C/C=C(\C)C(=O)O[C@H]1C(C)(C)[C@H](CC(=O)OC)[C@]2(C)C(=O)[C@@]1(O)[C@H]1O[C@]13[C@@H]1CC(=O)O[C@@H](c4ccoc4)[C@]1(C)CC[C@H]23` [RUAGEANIN B]: 86.3; `COC(=O)C[C@H]1C(C)(C)[C@H](OC(C)=O)[C@H]2C(=O)[C@]1(C)[C@H]1CC[C@]3(C)[C@@H](CC(=O)O[C@H]3c3ccoc3)[C@]13O[C@H]23` [XYLOCARPIN]: 77.8.
